Data: US20260007133A1, “HERBICIDAL COMPOSITION COMPRISING AZINE COMPOUNDS” (BASF SE, priority 2022, published 2026)
Like-named read-outs stand apart in the source and are kept apart here.

Assays:
Assay type in all cases: in vivo
Abutilon theophrasti = assay: Greenhouse pre-emergence (PRE) herbicidal test on ABUTH; settings: Abutilon theophrasti, pre-emergence, PRE; for pest or weed control at 2 g/ha: I-3 solo 2 gai/ha
In short: (§1)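 Each species is sown separately into loamy sand containing roughly 3.0% humus and treated before emergence. Pots are watered and covered until roots establish, then held at 10-25° C or 20-35° C. Injury is rated on a 0 to 100 scale 20 days post-treatment.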

Alopecurus myosuroides = assay: Greenhouse pre-emergence (PRE) herbicidal test on ALOMY; settings: Alopecurus myosuroides, pre-emergence
In short: as §1

Amaranthus retroflexus = assay: Greenhouse pre-emergence (PRE) herbicidal test on AMARE; settings: Amaranthus retroflexus, pre-emergence, 480 h, PRE, 20 DAT; for inhibition at 2 g/ha: AMARE
In short: as §1

Avena fatua = assay: Greenhouse pre-emergence (PRE) herbicidal test on AVEFA; settings: use rate 2 gai/ha
In short: (§2)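 PRE spray directly after sowing, fine nozzles; actives suspended/emulsified in water, components formulated as 5% w/w EC in spray liquor. Substrate loamy sand ~3.0% humus. Hooded until rooting; 10-25° C. / 20-35° C. per species. Score 0–100, 20 DAT.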

Brachiaria decumbens = assay: Greenhouse pre-emergence (PRE) herbicidal test on BRADC; settings: Urochloa decumbens, BRADC PRE, use rate 2 gai/ha
In short: as §2

Commelina benghalensis = assay: Greenhouse pre-emergence (PRE) herbicidal test on COMBE; settings: Commelina benghalensis, pre-emergence; for inhibition at 4 g/ha: use rate 4 gai/ha
In short: as §1

Echinochloa crus-galli = assay: Greenhouse pre-emergence (PRE) herbicidal test on ECHCG; settings: Echinochloa crus-galli, pre-emergence, PRE
[1] = 480 h, PRE, use rate 2 gai/ha, 20 DAT, read-out: % activity

COc1c(Cl)cc(F)c(F)c1Nc1nc(N)nc(C(C)(C)F)n1 [Compound I-3]
90%: inhibition at 8 g/ha (Alopecurus myosuroides; 480 h, PRE, ALOMY, 8 gai/ha, 20 DAT, read-out: % activity solo application) | inhibition at 8 g/ha (Alopecurus myosuroides; 480 h, PRE, ALOMY, use rate 8 gai/ha, 20 DAT, read-out: solo application % activity) | inhibition at 4 g/ha (Alopecurus myosuroides; PRE, ALOMY, use rate 4 gai/ha) | pest or weed control at 2 g/ha (Amaranthus retroflexus; 2 gai/ha)
85%: inhibition at 8 g/ha (Abutilon theophrasti; 480 h, ABUTH, use rate 8 gai/ha, 20 DAT, read-out: solo application % activity)
60%: inhibition at 2 g/ha (Amaranthus retroflexus; 2 gai/ha, read-out: % activity solo application) | inhibition at 2 g/ha (Amaranthus retroflexus; use rate 2 gai/ha, read-out: solo application % activity) | inhibition at 8 g/ha (Commelina benghalensis; COMBE PRE, use rate 8 gai/ha, read-out: % activity)
25%: inhibition at 2 g/ha (Abutilon theophrasti; 480 h, ABUTH, 2 gai/ha, 20 DAT, read-out: % activity solo application) | inhibition at 2 g/ha (Abutilon theophrasti; 480 h, ABUTH, use rate 2 gai/ha, 20 DAT, read-out: solo application % activity) | inhibition at 2 g/ha (Alopecurus myosuroides; ALOMY PRE, use rate 2 gai/ha, read-out: % activity) | inhibition at 4 g/ha (Commelina benghalensis; PRE, COMBE) | pest or weed control at 2 g/ha (Echinochloa crus-galli; 432 h, ECHCG, I-3 solo 2 gai/ha, 18 DAT)
10%: pest or weed control at 2 g/ha (Abutilon theophrasti; 480 h, ABUTH, 20 DAT) | inhibition at 2 g/ha (Abutilon theophrasti; 480 h, use rate 2 gai/ha, 20 DAT, read-out: % activity) | pest or weed control at 2 g/ha (Alopecurus myosuroides; 480 h, PRE, 2 gai/ha, 20 DAT, read-out: % activity) | inhibition at 2 g/ha (Commelina benghalensis; 480 h, PRE, COMBE, 2 gai/ha, 20 DAT, read-out: % activity solo application) | inhibition at 8 g/ha (Commelina benghalensis; 480 h, PRE, COMBE, 8 gai/ha, 20 DAT, read-out: % activity solo application) | inhibition at 2 g/ha (Commelina benghalensis; 480 h, PRE, COMBE, use rate 2 gai/ha, 20 DAT, read-out: solo application % activity) | inhibition at 8 g/ha (Commelina benghalensis; 480 h, PRE, COMBE, use rate 8 gai/ha, 20 DAT, read-out: solo application % activity) | inhibition at 2 g/ha (Commelina benghalensis; [1]) | inhibition at 1 g/ha (Echinochloa crus-galli; 240 h, use rate 1 gai/ha, 10 DAT) | inhibition at 2 g/ha (Echinochloa crus-galli; 240 h, use rate 2 gai/ha, 10 DAT, read-out: % activity)
95%: inhibition at 8 g/ha (Echinochloa crus-galli; 480 h, ECHCG, 8 gai/ha, 20 DAT, read-out: % activity solo application) | inhibition at 8 g/ha (Echinochloa crus-galli; 480 h, ECHCG, use rate 8 gai/ha, 20 DAT, read-out: solo application % activity)
70%: pest or weed control at 2 g/ha (Abutilon theophrasti; 432 h, ABUTH, 18 DAT) | pest or weed control at 8 g/ha (Abutilon theophrasti; 480 h, 8 gai/ha, 20 DAT) | inhibition at 8 g/ha (Abutilon theophrasti; 480 h, ABUTH, use rate 8 gai/ha, 20 DAT, read-out: % activity) | pest or weed control at 8 g/ha (Alopecurus myosuroides; 480 h, PRE, 8 gai/ha, 20 DAT) | inhibition at 8 g/ha (Commelina benghalensis; 480 h, PRE, COMBE, use rate 8 gai/ha, 20 DAT, read-out: % activity)
30%: inhibition at 2 g/ha (Brachiaria decumbens)
5%: inhibition at 2 g/ha (Alopecurus myosuroides; 480 h, PRE, ALOMY, 2 gai/ha, 20 DAT, read-out: % activity solo application) | inhibition at 2 g/ha (Echinochloa crus-galli; 480 h, ECHCG, 2 gai/ha, 20 DAT, read-out: % activity solo application) | inhibition at 2 g/ha (Echinochloa crus-galli; 480 h, ECHCG, use rate 2 gai/ha, 20 DAT, read-out: solo application % activity)
65%: inhibition at 2 g/ha (Abutilon theophrasti; ABUTH, use rate 2 gai/ha, read-out: % activity) | inhibition at 4 g/ha (Abutilon theophrasti; ABUTH, use rate 4 gai/ha) | inhibition at 2 g/ha (Alopecurus myosuroides; [1])
80%: inhibition at 8 g/ha (Abutilon theophrasti; 480 h, ABUTH, 8 gai/ha, 20 DAT, read-out: % activity solo application)
50%: pest or weed control at 2 g/ha (Commelina benghalensis; 432 h, PRE, COMBE, I-3 solo 2 gai/ha, 18 DAT, read-out: % activity)
20%: inhibition at 2 g/ha (Avena fatua) | inhibition at 4 g/ha (Echinochloa crus-galli; 240 h, use rate 4 gai/ha, 10 DAT) | inhibition at 8 g/ha (Echinochloa crus-galli; 240 h, use rate 8 gai/ha, 10 DAT, read-out: % activity)
75%: inhibition at 8 g/ha (Commelina benghalensis; 480 h, COMBE PRE, 20 DAT, use rate 8 gai/ha, read-out: % activity) | pest or weed control at 8 g/ha (Commelina benghalensis; 480 h, PRE, 8 gai/ha, 20 DAT) | inhibition at 8 g/ha (Commelina benghalensis; PRE, COMBE, use rate 8 gai/ha, read-out: % activity)
35%: inhibition at 4 g/ha (Commelina benghalensis; 480 h, PRE, COMBE, 20 DAT) | inhibition at 8 g/ha (Commelina benghalensis; 480 h, PRE, use rate 8 gai/ha, 20 DAT, read-out: % activity)
0%: inhibition at 2 g/ha (Commelina benghalensis; 480 h, COMBE PRE, 20 DAT, use rate 2 gai/ha, read-out: % activity) | inhibition at 2 g/ha (Commelina benghalensis; PRE, COMBE, use rate 2 gai/ha, read-out: % activity)
